Values of other authors in PMC6978833 (ACS Central Science, 2019).

Conditions: N3 of base in TAT / CGC triplets

pKa (N3 protonation) | SMILES
~6.5 | Nc1cc[nH]c(=O)n1 [cytosine]
~10 | Cc1c[nH]c(=O)[nH]c1=O [thymine]
